Patent US8557776B2, “Compounds and methods for 18F labeled agents” (Bayer Pharma AG, priority 2006, dated 2013)
*1 amine or outer side, *2 acyl side, *3 side chain or, on linkers, in order; H or OH if unused. Where a SMILES comes first, the peptide text is derived from it. [ ]: non-standard residue; d: D form. The star is where a group is joined. γ4hIle = CC[C@H](C)[C@@H](CCC(=O)[*:2])N[*:1]; Benzoyl(3-CN,4-F) = N#Cc1cc(C(=O)*)ccc1F; Ava = NCCCCC(=O)O

Experiments:
[1] = Table 1
[2] = system: human prostate cancer PC-3; assay: Biodistribution of F-18-Bombesin Analog in nude mice bearing human prostate cancer PC-3; type: in vivo
Description: Nude mice bearing human prostate cancer PC-3 were injected with 100 μl radioactive peptide dissolved in PBS containing 135 kBq per animal. For blocking 100 μg unlabeled gastrin-releasing peptide was co-injected. One hour post injection the animals were sacrificed and organs dissected for counting in a gamma-counter. Values are expressed as percent of the injected dose per gram organ weight.

Row | Compound | Panc. % [1] | Tumor/Tissue-Ratios T/Blood ([2]; 1 h Blocking: 100 μg unlabeled gastrin-releasing peptide co-injected) | Tumor/Tissue-Ratios T/Blood ([2]; 1 h post injection) | tumor-tissue ratio relative to that of 18F-choline (FCH) and 18F-FB-Lys-BN ([2]; FIG. 8, protocol as above) [time higher] | accumulation in tumor (in words) ([2]; PC-3 tumor, 1 h post injection) | specificity of targeting (in words) ([2]; blocking values low in tumor on co-injection of gastrin-releasing peptide)
1 | 3-CF3,4-F-Benzoyl-Arg-Ava-Gln-Trp-Ala-Val-NMeGly-His-Sta-Leu-NH2 (SEQ ID NO: 421) (RXQWAVGHXL; 3-CF3,4-F-benzoyl N-cap, Ava, NMeGly, Sta, C-amide) | 1,42% |  |  |  |  | 
2 | CC[C@H](C)[C@@H](CCC(=O)N[C@@H](CC(C)C)C(N)=O)NC(=O)[C@H](Cc1c[nH]cn1)NC(=O)CNC(=O)[C@@H](NC(=O)[C@H](C)NC(=O)[C@H](Cc1c[nH]c2ccccc12)NC(=O)[C@H](CCC(N)=O)NC(=O)CCCCNC(=O)c1ccc(F)c(C#N)c1)C(C)C [F-18-Bombesin Analog] ({Benzoyl(3-CN,4-F)-Ava}-QWAVGH[γ4hIle]L-NH2; N-terminus assumed) |  | 1.57 ± 0.22 | 21.03 ± 11.92 | 2.5 | accumulates in tumor | specific
